Experimental data from patent publication US20240299394A1, “TARGETED TREATMENT FOR SKIN FRAGILITY DISEASES” (University of Washington, priority 2023, published 2024).
“Also recorded” adds a separate entry of the source.

Assays:
[1] = system: HET or KO keratinocyte sheets; assay: Monolayer mechanical dissociation assay, SERCA2-deficient keratinocytes; assay type: cell-based, human; conditions: HET or KO monolayers; trametinib 1 μM 48 hours; PD98059 20 μM 24 hours
Experimental: (§1) Dispase-based mechanical dissociation assays were carried out as described (Simpson C L, et al. Am J Pathol. 2010; 177(6): p. 2921-37). Keratinocytes were plated at a density of 1×10^6 cells per well of 6-well cell culture dishes. Upon reaching confluence, the calcium concentration of the medium was adjusted to 1.3 mM. Vehicle control (DMSO) or chemical inhibitors were added at the following concentrations: […] After 24 to 72 hours, monolayers were washed with PBS and then incubated with 500 μL dispase (5 U/ml) in Hank's balanced salt solution (Stemcell Technologies of Vancouver, CA, Cat. #07913) for 30 minutes at 37° C. Next, 4.5 ml PBS was added to the wells and all liquid plus released monolayers were transferred into 15 mL conical tubes, which were placed together in a rack and inverted 5-10 times to induce mechanical stress. Monolayer fragments were transferred back into 6-well cell culture plates and imaged with a 12-megapixel digital camera. Fragments were counted in Fiji.

NHEK monolayers [2] = assay: Monolayer mechanical dissociation assay, SERCA2 inhibition with thapsigargin; assay type: cell-based, human; conditions: 24 hours; for integrity of epithelial sheets despite SERCA2 inhibition: with 1 μM TG, 1 μM Tram, 10 μM U0126, 20 μM PD98059, 1 μM dabrafenib
Experimental: as §1

[3] = system: organotypic epidermis grown from NHEKs; assay: Histology (H&E) of organotypic epidermis treated with TG; assay type: cell-based, human
NHEK monolayers [4] = assay: Monolayer mechanical dissociation assay, B-RAF inhibitor model of Grover disease; assay type: cell-based, human; conditions: co-treatment with Dab or Vem; trametinib 1 μM, U0126 10 μM, PD98059 20 μM; 24 h
Experimental: Dispase-based mechanical dissociation assays were carried out as described (70). Keratinocytes were plated at a density of 1×10^6 cells per well of 6-well cell culture dishes. Upon reaching confluence, the cells were switched into E-medium. Vehicle control (DMSO) or chemical inhibitors were added at the following concentrations: Dabrafenib (1 μM), vemurafenib (10 μM) trametinib (1 μM), U0126 (10 μM), or PD98059 (20 μM). After 24 h, monolayers were washed with PBS and then incubated with 500 μL dispase (5 U/ml) in Hank's balanced salt solution (Stemcell Technologies of Vancouver, Canada, Cat. #07913) for 30 minutes at 37° C. Next, 4.5 mL PBS was added to the wells and all liquid plus released monolayers were transferred into 15 mL conical tubes, which were placed together in a rack and inverted 1-10 times to induce mechanical stress. Monolayer fragments were transferred back into 6-well cell culture plates and imaged with a 12-megapixel digital camera. Fragments were counted in Fiji.

[5] = system: HET cells (SERCA2-depleted keratinocytes, THEKs); assay: RT-qPCR of keratinocyte mRNA transcripts; assay type: cell-based, human; conditions: HET cells in E-medium 24 hours; trametinib 1 μM, U0126 10 μM, PD184352 10 μM
Experimental: THEKs were seeded at a density of 1×10^6 cells per well of 6-well cell culture dishes in complete KSFM. Upon reaching confluence, KSFM was replaced with E-medium containing vehicle control (DMSO) or inhibitors at the following concentrations: Trametinib (1 μM), U0126 (10 μM), or PD184352 (10 μM). At the indicated time points, cell culture medium was removed and cells were washed once with PBS. RNA was extracted using the NucleoSpin RNA Plus Kit (Machery-Nagel of Duren, Germany) followed by reverse-transcription with the iScript cDNA synthesis kit (Bio-Rad of Hercules, CA) according to the manufacturer's instructions. Copy DNAs, also referred to as complementary DNAs (cDNAs) were diluted 5-fold and 2 μL of the resulting cDNAs were used for each 10 μL quantitative polymerase chain reaction (qPCR) assay. Real-time qPCR assays were carried out using the TaqMan Gene expression master mix (Applied Biosystems of Waltham, MA) according to the manufacturer's protocol. Pre-designed TaqMan probes from Thermo-Fisher were used for quantification of human Actb (Hs01060665_g1), Krt1 (Hs00196158_m1), Krt10 (Hs00166289_m1), Krt14 (Hs00265033_m1), Dsg1 (Hs00355084_m1), Alox12b (Hs00153961_m1), Alox15b (Hs00153988_m1), Ifi27 (Hs01086373_g1), Trpv3 (Hs00376854_m1), Trpv4 (Hs01099348_m1), or Notch1 (Hs01062014_m1). The housekeeping gene Actb was used as an endogenous control and mRNA fold changes were determined using the 2^(−ΔΔCt) method.

NHEKs = assay: KRT10 immunostaining of TG-treated keratinocytes; assay type: cell-based, human; conditions: 1 μM TG alone, 48 hours
Experimental: Keratinocytes were grown to confluence in 35 mm, glass-bottom cell culture dishes (MatTek of Ashland, MA, #P35G-1.5-20-C). For staining keratins and desmosomal proteins, cells were fixed in ice-cold 100% methanol at −20° C. for 2 minutes, allowed to dry, then re-hydrated in PBS. For staining other proteins, cells were fixed in 4% paraformaldehyde for 10 minutes at 37° C. Fixed cells were then incubated with blocking buffer [0.5% (w/v) bovine serum albumin (BSA, Sigma), 10% (w/v) normal goat serum (NGS, Sigma) in PBS] for 30 minutes at 37° C. Cells were then washed with PBS. Primary antibodies were diluted in 0.5% (w/v) BSA in PBS and incubated on the cells overnight at 4° C. Primary antibody dilutions were as follows: rabbit anti-SERCA2 (1:200), rabbit anti-cytokeratin 10 (1:2,000), mouse anti-Desmoglein 1 (1:100), mouse anti-Desmoglein 2 (1:100), mouse anti-Desmoglein 3 (1:100), mouse anti-Plakoglobin (1:100), rabbit anti-PERK1/2 (1:400), and mouse anti-ERK1/2 (1:400). Cells were washed three times with PBS, then incubated with species-specific secondary antibodies diluted at 1:300 (with or without Hoechst at 1:500) in 0.5% (w/v) BSA in PBS for 30 min at 37° C. […]
Fluorescence microscopy images were analyzed using Fiji software. Quantification of fluorescence intensity was performed in a blinded manner using non-visibly identifiable microscopy images. […]

[6] = system: organotypic cultures of NHEKs; assay: Immunostaining of KRT10 and pERK in organotypic epidermis treated with TG; assay type: cell-based, human; conditions: 1 μM TG, 48 hours
Experimental: Paraffin-embedded formalin-fixed tissue cross-sections on glass slides were incubated at 65° C. for 2 h. Sections were prepared for staining by immersion in 3 baths of xylenes (Thermo-Fisher) for 5 min each, followed by 3 baths of 95% ethanol for 5 min each, then 70% ethanol for 5 minutes, and finally 3 baths of PBS for 5 min each. Slides were then submerged in antigen retrieval solution [0.1 M sodium citrate (pH 6.0) with 0.05% (v/v) Tween-20] and heated to 95° C. for 15 min. Slides were allowed to cool to room temperature and then washed with PBS. Tissue sections were encircled with a hydrophobic barrier using a PAP pen. Tissue sections were incubated in blocking buffer [0.5% (w/v) BSA, 10% (v/v) NGS in PBS] for 30 minutes at 37° C. in a humidified chamber. […]
Fluorescence images of immunostained tissue sections were captured by SDC microscopy as above and analyzed using Fiji. Quantification of fluorescence intensity was performed in using non-visibly labeled images from immunostained tissue cross-sections. The Fiji “Measure” function was used to calculate the mean intensity of the fluorescence signal and the mean background fluorescence intensity, which was subtracted from each value. The net fluorescence intensity was averaged across multiple non-overlapping HPF and the values from control cultures were normalized to an average value of 1.

[7] = B-RAF inhibitor monotherapy for cancer (Carlos G, et al. 2015); cited from earlier work

COc1cccc(-c2cc(=O)c3ccccc3o2)c1N [PD98059]
resistance of keratinocyte sheets to mechanical stress (number of fragments) [1]: similarly rescued cohesion
integrity of epithelial sheets despite SERCA2 inhibition (NHEK monolayers [2]): restored
effect on TG-induced loss of keratinocyte cohesion ([3]; 1 μM TG plus 20 μM PD98059 or 1 μM trametinib): mitigated; also recorded: improved keratinocyte cohesion
effect on TG-induced retention of nuclei in cornified layers / cornification ([3]; 1 μM TG plus 20 μM PD98059 or 1 μM trametinib, 48 hours): reduced TG-induced retention of nuclei in the cornified layers; also recorded: normalization of cornification
integrity of keratinocyte sheets despite B-RAF inhibition (NHEK monolayers [4]): comparably rescued cell cohesion

O=C(NOCC1CC1)c1ccc(F)c(F)c1Nc1ccc(I)cc1Cl [PD184352]
DSG1 mRNA expression [5]: sufficient to augment expression
KRT1 mRNA expression [5]: sufficient to augment expression
KRT10 mRNA expression [5]: sufficient to augment expression
KRT14 mRNA levels [5]: did not significantly alter

C/C=C(/C)C(=O)O[C@H]1C(C)=C2[C@H]([C@@H]1OC(=O)CCCCCCC)[C@@](C)(OC(C)=O)C[C@H](OC(=O)CCC)[C@@]1(O)[C@H]2OC(=O)[C@@]1(C)O [TG, thapsigargin]
epithelial sheet fragmentation (NHEK monolayers [2]; 1 μM TG alone): significant increase in epithelial sheet fragmentation; also recorded: readily fragmented
KRT10 up-regulation by immunostaining (NHEKs): suppressed their ability to up-regulate KRT10
keratinocyte cohesion in organotypic epidermis ([3]; 1 μM TG alone, 48 hours): disrupted keratinocyte cohesion most notably between basal and suprabasal cell layers; also recorded: loss of keratinocyte cohesion; also recorded: separation between basal and suprabasal layers
retention of nuclei in cornified layers ([3]; 1 μM TG alone, 48 hours): retention of nuclei in the cornified layers
KRT10 immunostaining in organotypic epidermis [6]: reduction in KRT10
pERK (ERK activation) in organotypic epidermis [6]: ERK hyper-activation

N#CC(=C(/N)Sc1ccccc1N)/C(C#N)=C(\N)Sc1ccccc1N [U0126]
DSG1 mRNA expression [5]: sufficient to augment expression
KRT1 mRNA expression [5]: sufficient to augment expression
KRT10 mRNA expression [5]: sufficient to augment expression
KRT14 mRNA levels [5]: did not significantly alter
integrity of epithelial sheets despite SERCA2 inhibition (NHEK monolayers [2]): restored
integrity of keratinocyte sheets despite B-RAF inhibition (NHEK monolayers [4]): comparably rescued cell cohesion

CCCS(=O)(=O)Nc1ccc(F)c(C(=O)c2c[nH]c3ncc(-c4ccc(Cl)cc4)cc23)c1F [vemurafenib]
patients in whom GD was seen [7]: 38.9%
